Laboratory results published in PubChem BioAssay (NCI).
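In this assay, cells in 96-well plates receive the compound at five concentrations for 48 hours. Endpoints are linearly interpolated between the surrounding concentrations. Definition used: TGI = concentration required for complete inhibition of growth.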

Experiments:
Assay in all cases: NCI tumour cell line growth inhibition, 48 h
T-47D breast = system: T-47D breast
HCT-116 colon = system: HCT-116 colon
HCC-2998 colon = system: HCC-2998 colon
TK-10 renal = system: TK-10 renal
SNB-19 CNS = system: SNB-19 CNS
NCI/ADR-RES ovarian = system: NCI/ADR-RES ovarian

| SMILES | TGI (T-47D breast) | TGI (HCT-116 colon) | TGI (HCC-2998 colon) | TGI (TK-10 renal) | TGI (SNB-19 CNS) | TGI (NCI/ADR-RES ovarian) |
| --- | --- | --- | --- | --- | --- | --- |
| CCN(CC)CCNc1ccc2ncn3c4c(OC)cccc4c(=O)c1c23 | > 100 µM | 10.1 µM | 18.6 µM | 77.7 µM | 46.3 µM | – |
| Cc1nn(-c2ccccc2)c2c1C(c1cc3ccccc3nc1Cl)NC(=S)N2 (stereo not drawn) | > 100 µM | > 100 µM | – | > 100 µM | > 100 µM | > 100 µM |
| O=c1oc2cc(O)ccc2cc1-c1nc2ccccc2s1 | 95.7 µM | 47 µM | 66.1 µM | > 100 µM | > 100 µM | 44.7 µM |
| COc1ccc(C(=O)/C=C/c2ccc(OCC(=O)O)cc2)cc1 | > 100 µM | > 100 µM | > 100 µM | > 100 µM | > 100 µM | > 100 µM |
| O=C1c2ccccc2C(=O)c2c1oc(=O)c1ccccc21 | 13.9 µM | 4.27 µM | 6.96 µM | 18.9 µM | > 25 µM | 10.2 µM |
| CC(C)CCNC(=O)c1ccc(CNC(=O)/C=C/c2csc(-c3ccccc3)n2)cc1 | > 100 µM | > 100 µM | > 100 µM | > 100 µM | 56.6 µM | > 100 µM |
| Fc1ccc(NCn2nc(COc3ccccc3Cl)n(/N=C/c3ccc(-c4ccc(Cl)cc4Cl)o3)c2=S)cc1Cl | > 100 µM | > 100 µM | – | > 100 µM | – | > 100 µM |
| CC1(C)CCCCCC(C)(CCCCCCCCCCCO)C1=O (stereo not drawn) | 29.8 µM | 28.8 µM | 39.9 µM | 24.5 µM | 31.2 µM | 27 µM |
| COc1ccc(N=Nc2c(C)c(C#N)c(=S)n(C3OC(COC(C)=O)C(OC(C)=O)C(OC(C)=O)C3OC(C)=O)c2-c2ccccc2)cc1 (stereo not drawn) | 41.2 µM | 15.6 µM | > 100 µM | 34.2 µM | 24.2 µM | 24.4 µM |
| COP(=O)(OC)C(O)/C=C(\Cl)c1ccc(Cl)cc1 (stereo not drawn) | > 100 µM | 36.2 µM | – | > 100 µM | > 100 µM | 55.7 µM |
| CC1(C)O[C@H]2[C@@H]3N=C(c4ccccc4)O[C@@H]3C=C[C@H]2O1 | > 100 µM | > 100 µM | > 100 µM | > 100 µM | > 100 µM | > 100 µM |
| c1ccc2c(c1)CCN1CCc3c([nH]c4ccccc34)C21 (stereo not drawn) | > 100 µM | 76.5 µM | 34 µM | > 100 µM | > 100 µM | 56.9 µM |
| CC(=O)N1C(C(=O)NNc2ccccc2)CSC1c1ccccc1 (stereo not drawn) | > 100 µM | > 100 µM | > 100 µM | > 100 µM | > 100 µM | > 100 µM |
| CC(C)/C(Cl)=N\OC(=O)Nc1ccc(F)c([N+](=O)[O-])c1 | – | 11.7 µM | > 100 µM | 13.5 µM | 30.6 µM | 35.2 µM |
| CC(=O)OCC1OC(n2c3c(cc(C#N)c2=S)CCCCCC3)C(OC(C)=O)C(OC(C)=O)C1OC(C)=O (stereo not drawn) | 30.4 µM | > 100 µM | > 100 µM | > 100 µM | > 100 µM | > 100 µM |
| O=c1c2ccccc2c2c1c1c3ccccc3c(=O)c1c1c3ccccc3c(=O)c21 | > 100 µM | > 100 µM | > 100 µM | > 100 µM | > 100 µM | > 100 µM |

| SMILES | TGI (T-47D breast) | TGI (HCT-116 colon) | TGI (HCC-2998 colon) | TGI (TK-10 renal) | TGI (SNB-19 CNS) | TGI (NCI/ADR-RES ovarian) |
| --- | --- | --- | --- | --- | --- | --- |
| Cc1ccc(S(=O)C[C@@]2(C(F)F)NC(=O)NC2=O)cc1 (stereo partly drawn) | > 100 µM | > 100 µM | > 100 µM | > 100 µM | > 100 µM | > 100 µM |
| COc1ccc(N2CCN(Cc3c(C(C)=O)[n+](=O)c4ccccc4n3[O-])CC2)cc1 | > 100 µM | > 100 µM | > 100 µM | 67.5 µM | > 100 µM | > 100 µM |
| O=C1/C(=C/c2ccc(Cl)cc2)N=C(c2ccccc2)N1C1Nc2cc3c(cc2S1)NC(N1C(=O)/C(=C/c2ccc(Cl)cc2)N=C1c1ccccc1)S3 (stereo not drawn) | > 100 µM | > 100 µM | > 100 µM | > 100 µM | – | > 100 µM |
| COc1ccc(/C=C(\C(=O)OCC(C)C)c2ccc(OC)c(OC)c2)cc1OC | > 100 µM | > 100 µM | > 100 µM | > 100 µM | > 100 µM | > 100 µM |
| COc1cc(S(=O)(=O)Nc2ccc(-c3csc(N4C(=O)C(C)SC4c4ccccc4O)n3)cc2)ccc1Cl (stereo not drawn) | 31 µM | > 100 µM | – | – | > 100 µM | > 100 µM |
| CCCN1CN(c2ccccc2)C2(CCN(CCCC(=O)c3ccc(F)cc3)CC2)C1=O | 35 µM | 8.75 µM | 20.8 µM | 22.4 µM | 34.7 µM | 17.6 µM |
| CC1C2(C)OC(=N)C(C#N)(C(c3ccco3)O2)C1(C#N)C#N (stereo not drawn) | 45.9 µM | 67.1 µM | 55.5 µM | > 100 µM | > 100 µM | > 100 µM |
| O=C(O)CSc1nnc(CCCCCCCCc2nnc(SCC(=O)O)o2)o1 | > 100 µM | > 100 µM | > 100 µM | > 100 µM | > 100 µM | > 100 µM |
| COc1ccc(-c2oc3cc(OC)c(OC)c(OC)c3c(=O)c2OC)cc1OC | > 100 µM | > 100 µM | > 100 µM | > 100 µM | > 100 µM | > 100 µM |
| O=c1[nH]c(=O)n(C2OC(CO)C(O)C2O)cc1OCCc1ccccc1 (stereo not drawn) | > 100 µM | > 100 µM | > 100 µM | > 100 µM | > 100 µM | > 100 µM |
| O/N=C1/CCCCCC1NO (stereo not drawn) | > 100 µM | > 100 µM | > 100 µM | > 100 µM | > 100 µM | > 100 µM |
| Clc1ccc2c(c1)CC1C[N+]3=C(CCCC3)C1=C2 (stereo not drawn) | > 100 µM | > 100 µM | – | > 100 µM | > 100 µM | > 100 µM |
| O=c1oc2cccnc2n1CCN1CCN(c2ccc(Oc3ccccc3)cc2)CC1 | > 100 µM | > 100 µM | > 100 µM | > 100 µM | > 100 µM | > 100 µM |
| CCCC(=O)/C=C/S/C=C/C(=O)CCC | > 100 µM | – | – | 14.5 µM | 72.3 µM | 9.05 µM |
| Cn1c(=O)c2nc3nnc(C#N)c(N)n3c2n(C)c1=O | > 100 µM | > 100 µM | > 100 µM | > 100 µM | – | > 100 µM |
